# Laboratory results taken from patent US20150010928A1, “MEANS AND METHODS FOR ASSESSING AN ENDOCRINE DISEASE OR DISORDER” (priority 2012, published 2015).
# Marks after values point to notes of the source that are not given here.
# Test system: male rats
# Assay: Plasma metabolite profiling (GC-MS, LC-MS, SPE-LC-MS) in male rats dosed once daily over 28 days (OECD 407)
# Format: in vivo, rat
# Parameters: key to erythro-Sphingoside (d18:1) / Tricosanoic acid (C23:0) / beta-Sitosterol / Tryptophan: ratio of treated group mean to untreated control group mean
# Conditions: high dose
# Experimental: Each dose group in the studies consisted of five rats per sex. Additional groups of each 5 male and female animals served as controls. […] All animals of the animal population were kept under the same constant temperature (20-24±3° C.) and the same constant humidity (30-70%). The animals of the animal population were fed ad libitum. The food to be used was essentially free of chemical or microbial contaminants. Drinking water was also offered ad libitum. Accordingly, the water was free of chemical and microbial contaminants as laid down in the European Drinking Water Directive 98/83/EG. The illumination period was 12 hours light followed by 12 hours darkness (12 hours light, from 6:00 to 18:00, and 12 hours darkness, from 18:00 to 6:00). […] The test substances (compounds) in the Tables 1 to 17 below were dosed and administered as described in the Table 18.
# In the morning of day 7, 14, and 28, blood was taken from the retroorbital venous plexus from fasted anaesthetized animals. From each animal, 1 ml of blood was collected with EDTA as anticoagulant. The samples were centrifuged for generation of plasma. All plasma samples were covered with a N2 atmosphere and then stored at −80° C. until analysis.
# For mass spectrometry-based metabolite profiling analyses plasma samples were extracted and a polar and a non-polar (lipid) fraction was obtained. For GC-MS analysis, the non-polar fraction was treated with methanol under acidic conditions to yield the fatty acid methyl esters. Both fractions were further derivatised with O-methyl-hydroxyamine hydrochloride and pyridine to convert Oxogroups to O-methyloximes and subsequently with a silylating agent before analysis. In LC-MS analysis, both fractions were reconstituted in appropriate solvent mixtures. HPLC was performed by gradient elution on reversed phase separation columns. Mass spectrometric detection which allows target and high sensitivity MRM (Multiple Reaction Monitoring) profiling in parallel to a full screen analysis was applied as described in WO2003073464.
# Steroids and their metabolites were measured by online SPE-LC-MS (Solid phase extraction-LC-MS).
# Following comprehensive analytical validation steps, the data for each analyte were normalized against data from pool samples. These samples were run in parallel through the whole process to account for process variability. The significance of treatment group values specific for sex, treatmentduration and metabolite was determined by comparing means of the treated groups to the means of the respective untreated control groups using WELCH-test and quantified with treatment ratios versus control and p-values.
# The identification of the most important biomarkers per toxicity pattern was done by a ranking of the analytes in the tables below. Therefore the metabolic changes in reference treatments of a given pattern (shown in the table) were compared with changes of the same metabolite in other unrelated treatments. […] The maximum absolute value of the respective TVALUE was taken to indicate the most important metabolite for the pattern.
structure (smiles),measurement,setting,value
Cc1cccc(C)c1N(Cn1cccn1)C(=O)CCl [Metazachlor],3-O-Methylsphingosine (d18:1),"m7, Table 10a",2.88 *
same,5-O-Methylsphingosine (d18:1),"m7, Table 10a",3.04 *
same,Cysteine,"m7, Table 10a",1.07^
same,Lignoceric acid (C24:0),"m7, Table 10a",1.6 *
same,Nervonic acid (C24:cis[15]1),"m7, Table 10a",3.17 *
same,Oleic acid (C18:cis[9]1),"m7, Table 10a",1.09^
same,Stearic acid (C18:0),"m7, Table 10a",1.45 *
same,alpha-Tocopherol,"m7, Table 10a",1.71 *
same,erythro-Sphingoside (d18:1),"m7, Table 10a",2.3 *
same,threo-Sphingosine (d18:1),"m7, Table 10a",2.18 *
same,Oleic acid (C18:cis[9]1),"m7, Table 10b",1.09
same,"Phosphatidylcholine (C16:0, C16:0)","m7, Table 10b",0.98
same,Thyroxine (T4),"m7, Table 10b",0.98
same,trans-4-Hydroxyproline,"m7, Table 10b",0.93
same,3-O-Methylsphingosine (d18:1),"m14, Table 10a",4.31 *
same,5-O-Methylsphingosine (d18:1),"m14, Table 10a",4.66 *
same,Cysteine,"m14, Table 10a",0.86
same,Lignoceric acid (C24:0),"m14, Table 10a",2.38 *
same,Nervonic acid (C24:cis[15]1),"m14, Table 10a",4 *
same,Oleic acid (C18:cis[9]1),"m14, Table 10a",1.82 *
same,Stearic acid (C18:0),"m14, Table 10a",2.36 *
same,alpha-Tocopherol,"m14, Table 10a",2.2 *
same,erythro-Sphingoside (d18:1),"m14, Table 10a",3.47 *
same,threo-Sphingosine (d18:1),"m14, Table 10a",3.13 *
same,Oleic acid (C18:cis[9]1),"m14, Table 10b",1.82^
same,"Phosphatidylcholine (C16:0, C16:0)","m14, Table 10b",0.83 *
same,Thyroxine (T4),"m14, Table 10b",0.56 *
same,trans-4-Hydroxyproline,"m14, Table 10b",0.72 *
same,3-O-Methylsphingosine (d18:1),"m28, Table 10a",4.4 *
same,5-O-Methylsphingosine (d18:1),"m28, Table 10a",4.51 *
same,Cysteine,"m28, Table 10a",1.41 *
same,Lignoceric acid (C24:0),"m28, Table 10a",2.11 *
same,Nervonic acid (C24:cis[15]1),"m28, Table 10a",3.63 *
same,Oleic acid (C18:cis[9]1),"m28, Table 10a",1.82 *
same,Stearic acid (C18:0),"m28, Table 10a",2.59 *
same,alpha-Tocopherol,"m28, Table 10a",2.11 *
same,erythro-Sphingoside (d18:1),"m28, Table 10a",3.68 *
same,threo-Sphingosine (d18:1),"m28, Table 10a",3.33 *
same,Oleic acid (C18:cis[9]1),"m28, Table 10b",1.82^
same,"Phosphatidylcholine (C16:0, C16:0)","m28, Table 10b",0.79 *
same,Thyroxine (T4),"m28, Table 10b",0.74^
same,trans-4-Hydroxyproline,"m28, Table 10b",0.84 *
